In one assay the test system is Trichomonas vaginalis. The experiment in a line: Antitrichomonas activity against Trichomonas vaginalis after 48 hrs. Format: functional.
The next assay has as its system Spermatozoa. The experiment in a line: Spermicidal activity against human spermatozoa. The format is functional.

Where only a bound is given, the exact number is not on record here.

From ChEMBL document CHEMBL1146988, “The spermicidal and antitrichomonas activities of SSRI antidepressants” (2006) come the findings set out here.

`CNCCC(Oc1ccc(C(F)(F)F)cc1)c1ccccc1.Cl` (stereo unspecified) [FLUOXETINE HYDROCHLORIDE] returned an MLC in the assay with Trichomonas vaginalis of 0.003%.
Consider `COCCCC/C(=N\OCCN)c1ccc(C(F)(F)F)cc1.O=C(O)/C=C\C(=O)O` [FLUVOXAMINE MALEATE], for which, in the assay on Spermatozoa, the ED50 is reported as 0.005% and the MEC came out at 0.1%. In addition, in the assay with Trichomonas vaginalis, the MLC is reported as 0.005% and the MLC50 was 0.003%.
In the assay with Spermatozoa, `CCCCCCCCCc1ccc(OCCOCCOCCOCCOCCOCCOCCOCCOCCO)cc1` [NONOXYNOL 9] returned an ED50 of 0.01% and an MEC of 0.05%. In the assay on Trichomonas vaginalis, this molecule had an MLC of 0.002% and an MLC50 of 0.0009%.
In the assay with Spermatozoa, `Cl.Cl.Fc1ccc([C@@H]2CCNC[C@H]2COc2ccc3c(c2)OCO3)cc1.Fc1ccc([C@@H]2CCNC[C@H]2COc2ccc3c(c2)OCO3)cc1.O` [PAROXETINE HYDROCHLORIDE] gave an ED50 of 0.008% and an MEC of 0.1%. In addition, the MLC in the assay on Trichomonas vaginalis is greater than 0.01%.
In the assay with Spermatozoa, `Cl.NCCc1c[nH]c2ccc(O)cc12` [SEROTONIN HYDROCHLORIDE] had an MEC greater than 1%.
Consider `CN[C@H]1CC[C@@H](c2ccc(Cl)c(Cl)c2)c2ccccc21.Cl` [SERTRALINE HYDROCHLORIDE], for which the MEC in the assay with Spermatozoa came to 0.5%. Besides, in the assay on Trichomonas vaginalis, the MLC amounted to 0.003% and the MLC50 came to 0.0012%.
